Results as given in paper PMC8730463, “The human gut symbiont Ruminococcus gnavus shows specificity to blood group A antigen during mucin glycan foraging: Implication for niche colonisation in the gastrointestinal tract” (PLoS Biology, 2021).

Legend:
RgGH98 = target: T1, RgGH98; test: crystal structure ([…] Å), ITC and STD NMR; type: binding, Mediterraneibacter gnavus
T1 construct: gene RGna_RS10325; 44–946 aa (N-term GBLD, catalytic domain, C-term domain)

[1] = target: T2, Ulex Europaeus Agglutinin I (UEA I) (Ulex europaeus, UniProt P22972); test: ITC (control lectin); type: binding
T2 sequence (P22972 1-243): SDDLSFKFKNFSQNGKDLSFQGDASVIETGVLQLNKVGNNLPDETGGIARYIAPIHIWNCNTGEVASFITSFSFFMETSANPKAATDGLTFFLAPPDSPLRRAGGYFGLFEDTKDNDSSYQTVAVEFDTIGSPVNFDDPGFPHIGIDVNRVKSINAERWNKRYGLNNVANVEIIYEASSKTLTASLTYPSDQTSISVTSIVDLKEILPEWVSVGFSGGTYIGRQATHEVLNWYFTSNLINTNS

Structure (SMILES) | Kd (RgGH98) | Kd [1]
CC(=O)N[C@H]1[C@@H](O[C@H]2[C@@H](O)[C@@H](CO)O[C@@H](O[C@H]3[C@H](O)[C@@H](NC(C)=O)C(O)O[C@@H]3CO)[C@@H]2O[C@@H]2O[C@@H](C)[C@@H](O)[C@@H](O)[C@@H]2O)O[C@H](CO)[C@H](O)[C@@H]1O (some centres unmarked) [BgA II, blood group A tetrasaccharide type II] | 490 µM | 
CC(=O)N[C@H]1C(O)O[C@H](CO)[C@@H](O[C@@H]2O[C@H](CO)[C@H](O)[C@H](O)[C@H]2O[C@@H]2O[C@@H](C)[C@@H](O)[C@@H](O)[C@@H]2O)[C@@H]1O (some centres unmarked) [BgH, blood group H trisaccharide] |  | 10.3 µM
